Experimental data as given in paper PMC2834185 (Nature chemical biology, 2010).
Entries after “also recorded” stand apart in the source; their conditions may differ.

Experiments:
embryonic zebrafish [1] = experiment: photomotor response; assay type: in vivo; conditions: for effect on PMR excitation phase (motor response to the first stimulus) / effect on PMR refractory period (response to the second stimulus) / effect on PMR latency period / effect on motor activity in the PMR: embryonic zebrafish; for effect on PMR excitation phase (motor response to the first stimulus) / effect on PMR latency period / effect on motor activity in the PMR: light stimulus; for suppression of AzMet behavioral effects (PMR excitation): AzMet co—treated with 2—PAM and atropine; for effect on PMR refractory period (response to the second stimulus): second light pulse
embryonic zebrafish [2] = experiment: embryonic touch response; assay type: in vivo; conditions: touch stimulus
purified AChE = purified AChE (Homo sapiens, UniProt P22303); experiment: AChE activity assay in vitro; conditions: 10 μM
Sequence of purified AChE (P22303 32-614): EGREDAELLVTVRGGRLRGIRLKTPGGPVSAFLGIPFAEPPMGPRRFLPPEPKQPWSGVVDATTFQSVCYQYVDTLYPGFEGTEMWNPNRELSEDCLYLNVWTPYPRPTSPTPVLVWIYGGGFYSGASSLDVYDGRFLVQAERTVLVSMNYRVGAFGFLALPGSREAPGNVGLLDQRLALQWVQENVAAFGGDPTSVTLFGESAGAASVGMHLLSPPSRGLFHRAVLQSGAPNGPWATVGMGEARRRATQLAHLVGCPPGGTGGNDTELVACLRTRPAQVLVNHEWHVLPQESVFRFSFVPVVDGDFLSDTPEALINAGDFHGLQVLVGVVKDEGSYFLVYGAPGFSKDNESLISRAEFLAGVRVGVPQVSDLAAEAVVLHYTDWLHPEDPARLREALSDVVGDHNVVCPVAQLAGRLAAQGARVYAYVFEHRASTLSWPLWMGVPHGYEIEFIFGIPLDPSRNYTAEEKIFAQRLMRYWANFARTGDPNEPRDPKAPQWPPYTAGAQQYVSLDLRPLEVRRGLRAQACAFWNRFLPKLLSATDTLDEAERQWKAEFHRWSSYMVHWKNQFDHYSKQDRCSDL

MAO—B = molecular target: T1, MAO—B (Homo sapiens, UniProt P27338); conditions: in vitro; warfarin at 10 μM
T1 sequence (P27338 1-520): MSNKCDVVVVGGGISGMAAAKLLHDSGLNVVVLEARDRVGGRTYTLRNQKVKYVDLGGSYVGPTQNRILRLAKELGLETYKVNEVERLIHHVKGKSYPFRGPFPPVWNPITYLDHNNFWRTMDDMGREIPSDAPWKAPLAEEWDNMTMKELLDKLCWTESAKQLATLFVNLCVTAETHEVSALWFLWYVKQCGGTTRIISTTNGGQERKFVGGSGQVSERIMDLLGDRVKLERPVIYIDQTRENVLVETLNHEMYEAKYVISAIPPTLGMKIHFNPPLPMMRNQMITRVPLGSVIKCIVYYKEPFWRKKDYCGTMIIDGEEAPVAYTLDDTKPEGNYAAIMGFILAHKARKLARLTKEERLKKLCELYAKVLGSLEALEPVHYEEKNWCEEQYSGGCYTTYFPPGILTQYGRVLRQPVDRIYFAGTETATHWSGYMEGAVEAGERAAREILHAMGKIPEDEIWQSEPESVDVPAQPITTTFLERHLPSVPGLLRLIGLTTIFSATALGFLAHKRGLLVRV

## COP(=S)(OC)SCn1nnc2ccccc2c1=O [azinphos methyl]
Embryonic zebrafish [1]; compared to untreated controls
  paralysis in zebrafish: caused paralysis in zebrafish
Embryonic zebrafish [1]
  effect on PMR excitation phase (motor response to the first stimulus): reduced levels of PMR excitation

## CN1[C@@H]2CC[C@H]1C[C@@H](OC(=O)C(CO)c1ccccc1)C2 (stereo partly drawn) [atropine]
Embryonic zebrafish [1]
  suppression of AzMet behavioral effects (PMR excitation): counteracted the behavioral effects of AzMet

## CCN1C[C@]2(COC)[C@H](O)C[C@H](OC)[C@@]34[C@@H]5C[C@@]6(O)[C@H](OC(=O)c7ccccc7)[C@@H]5[C@@](OC(C)=O)([C@@H]([C@H](OC)[C@H]23)[C@@H]14)[C@@H](O)[C@@H]6OC [aconitine]
Embryonic zebrafish [1]
  effect on PMR excitation phase (motor response to the first stimulus): prolongation of the PMR excitation period

## C[n+]1ccccc1C=NO [pralidoxime]
Embryonic zebrafish [1]
  suppression of AzMet behavioral effects (PMR excitation): counteracted the behavioral effects of AzMet

## O=C(CCCN1C(=O)c2ccccc2C1=O)N1CCCCCC1 [STR—1]
Embryonic zebrafish [2]
  phenotype in the ETR assay: slow—to—relax (STR) phenotype

## O=[N+]([O-])c1ccc2nc(N3CCNCC3)ccc2c1 [6—nitroquipazine]
Embryonic zebrafish [1]
  effect on PMR excitation phase (motor response to the first stimulus): exhibited a robust but brief motor response to the first stimulus
  effect on PMR refractory period (response to the second stimulus): also responded to the second stimulus
Embryonic zebrafish [1]; listed as 6—Nitroquipazine
  effect on PMR refractory period (response to the second stimulus): modulates the PMR refractory period

## C[C@]12CC[C@H](O)C[C@H]1CC[C@@H]1[C@@H]2CC[C@]2(C)[C@@H](C3=CC(=O)OC3)CC[C@]12O [digitoxigenin]
Embryonic zebrafish [1]; concentrations above the active range (Supplementary Fig. 1)
  toxicity in the PMR assay: induced toxicities at higher concentrations
Embryonic zebrafish [1]
  effect on PMR excitation phase (motor response to the first stimulus): caused a vigorous and prolonged motor response to the stimulus; also recorded: prolongation of the PMR excitation period
Embryonic zebrafish [1]; listed as Digitoxigenin
  effect on PMR excitation phase (motor response to the first stimulus): prolongs duration of the PMR excitation phase

## CCCN1CCO[C@@H]2c3cc(O)ccc3OC[C@H]21 [PD128907]
Embryonic zebrafish [1]
  effect on PMR latency period: prolonged latency period

## CNC(=O)Oc1ccc2c(c1)[C@]1(C)CCN(C)[C@@H]1N2C [eserine]
Embryonic zebrafish [2]
  phenotype in the ETR assay: slow—to—relax (STR) phenotype

## COc1ccc(C(=O)O[C@H]2CC[C@@]3(C)[C@@H]4CC[C@H]5[C@]6(O)C[C@H](O)[C@@]7(O)[C@@H](CN8C[C@@H](C)CC[C@H]8[C@@]7(C)O)[C@]6(O)C[C@@]53O[C@]24O)cc1OC [veratridine]
Embryonic zebrafish [1]
  effect on PMR excitation phase (motor response to the first stimulus): prolongation of the PMR excitation period

## CN1CCc2cccc3c2[C@H]1Cc1ccc(O)c(O)c1-3 [apomorphine]
Embryonic zebrafish [1]
  effect on PMR latency period: lengthened the PMR latency period
Embryonic zebrafish [1]; listed as Apomorphine
  effect on PMR latency period: increases PMR latency period duration

## Oc1cc2c(cc1O)[C@H]1c3ccccc3CN[C@@H]1CC2 (racemic) [dihydrexidine]
Embryonic zebrafish [1]
  effect on PMR latency period: prolonged latency period

## CN1C(=O)CN=C(c2ccccc2)c2cc(Cl)ccc21 [diazepam]
Embryonic zebrafish [1]
  effect on motor activity in the PMR: decreased activity
Embryonic zebrafish [1]; listed as Diazepam
  effect on motor activity in the PMR: reduces motor activity

## CC(C)NCC(O)c1ccc(O)c(O)c1 (stereo not drawn) [isoproterenol]
Embryonic zebrafish [1]
  effect on motor activity in the PMR: increased motor activity throughout the PMR; also recorded: elevated activity in all PMR phases
Embryonic zebrafish [1]; listed as Isoproterenol
  effect on motor activity in the PMR: increases zebrafish motor activity

## CC(C)[C@@]1(NC(=O)[C@@H]2C[C@@H]3c4cccc5[nH]cc(c45)C[C@H]3N(C)C2)O[C@@]2(O)[C@@H]3CCCN3C(=O)[C@H](Cc3ccccc3)N2C1=O [dihydroergocristine]
Embryonic zebrafish [1]
  effect on PMR latency period: prolonged latency period

## C[C@]12CC[C@H]3[C@@H](CC[C@]4(O)C[C@@H](O)CC[C@]34C(=O)O)[C@@]1(O)CC[C@@H]2C1=CC(=O)OC1 [strophanthidinic acid]
Embryonic zebrafish [1]
  effect on PMR excitation phase (motor response to the first stimulus): prolongation of the PMR excitation period

## O=C1c2ccccc2-c2nc3ncnn3c(-c3ccccc3Cl)c21 [STR—2]
Embryonic zebrafish [2]
  phenotype in the ETR assay: slow—to—relax (STR) phenotype
Purified AChE
  inhibition of purified AChE in vitro: did not inhibit purified AChE in vitro

## CNC[C@H](O)c1ccc(O)c(O)c1 [epinephrine]
Embryonic zebrafish [1]
  effect on motor activity in the PMR: elevated activity in all PMR phases

## CC(C)(C)NCC(O)c1cc(Cl)c(N)c(Cl)c1 (stereo not drawn) [clenbuterol]
Embryonic zebrafish [1]
  effect on motor activity in the PMR: elevated activity in all PMR phases

## CC(=O)CC(c1ccccc1)c1c(O)c2ccccc2oc1=O (stereo not drawn) [warfarin]
Embryonic zebrafish [1]; increased PMR excitation magnitude and duration, warfarin at 10 μM
  PMR magnitude stimulant (MAG) phenotype: do not produce a MAG phenotype
MAO—B
  inhibition of MAO activity: nor inhibit MAO activity
